{"source": "patent US20110124692A1", "about": "“CRYSTALLINE FORMS OF THIAZOLIDINEDIONE COMPOUND AND ITS MANUFACTURING METHOD” (DAIICHI SANKYO COMPANY, LIMITED, priority 2008, published 2011)", "key": {"[1]": {"experiment": "Solubility in dilute hydrochloric acid (Test Example 3)", "assay_type": "physicochemical", "conditions": "for The concentration (mg/g) of 5-(4-{[6-(4-amino-3,5-dimethylphenoxy)-1-methyl-1-H-benzimidazol-2-yl]methoxy}benzyl)-1,3-thiazolidine-2,4-dione in dilute hydrochloric acid: dilute hydrochloric acid 9.6 mg/g (pH about 0.7), 25° C., 500 mg in 5 mL, sampled after 6 minutes; for Concentration in dilute hydrochloric acid compared with the other crystalline forms: comparison of Table 7", "description": "The concentration was measured under the test conditions below.\nThe concentration is calculated from the following formula."}, "[2]": {"conditions": "in vivo; cited from earlier work"}, "[3]": {"biological_target": "T1, peroxisome proliferator-activated receptor (PPAR) γ (Homo sapiens, UniProt P37231)", "T1 sequence (P37231 1-505)": "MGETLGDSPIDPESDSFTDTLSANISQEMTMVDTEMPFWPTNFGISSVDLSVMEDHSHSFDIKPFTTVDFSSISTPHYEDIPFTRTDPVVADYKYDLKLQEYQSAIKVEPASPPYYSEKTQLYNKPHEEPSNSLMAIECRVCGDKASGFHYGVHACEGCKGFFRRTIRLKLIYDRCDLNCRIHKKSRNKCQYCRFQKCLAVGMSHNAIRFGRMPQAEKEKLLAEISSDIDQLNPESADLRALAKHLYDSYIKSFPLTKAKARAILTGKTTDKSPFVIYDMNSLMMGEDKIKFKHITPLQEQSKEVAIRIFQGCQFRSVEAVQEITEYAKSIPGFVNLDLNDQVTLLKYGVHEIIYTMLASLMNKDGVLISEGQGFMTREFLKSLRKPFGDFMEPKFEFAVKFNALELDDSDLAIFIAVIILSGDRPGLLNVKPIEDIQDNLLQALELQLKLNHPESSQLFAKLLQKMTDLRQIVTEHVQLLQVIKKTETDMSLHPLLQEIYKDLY", "conditions": "as disclosed in Patent Documents 1-5; cited from earlier work"}, "[4]": {"system": "cancer cells", "conditions": "in combination with an epidermal growth factor receptor (EGFR) inhibitor; cited from earlier work"}, "[5]": {"system": "human stomach cancer cells, human breast cancer cells, small cell lung cancer, pancreas cancer cells, prostate cancer cells, kidney cancer cells …", "conditions": "medulloblastoma, sarcoma cells, multiple myeloma; cited from earlier work"}, "[6]": {"system": "human non-small-cell lung cancer", "conditions": "cited from earlier work"}, "[7]": {"system": "human leukemia cells", "conditions": "cited from earlier work"}, "[8]": {"system": "human kidney cancer", "conditions": "cited from earlier work"}, "[9]": {"system": "cancer cells", "conditions": "in combination with a VEGFR inhibitor or a Raf kinase inhibitor; cited from earlier work"}, "[10]": {"system": "human colon cancer cell lines", "conditions": "against human colon cancer cell lines; cited from earlier work"}}, "note": "Where a name gives a salt, the structure may show the parent alone. Read-outs that look alike come from different tables or passages of the source.", "data": [{"compound": "Cc1cc(Oc2ccc3nc(COc4ccc(CC5SC(=O)NC5=O)cc4)n(C)c3c2)cc(C)c1N", "note": "(stereo not shown) [5-(4-{[6-(4-amino-3,5-dimethylphenoxy)-1-methyl-1-H-benzimidazol-2-yl]methoxy}benzyl)-1,3-thiazolidine-2,4-dione monohydrate]", "values": [{"measurement": "The concentration (mg/g) of 5-(4-{[6-(4-amino-3,5-dimethylphenoxy)-1-methyl-1-H-benzimidazol-2-yl]methoxy}benzyl)-1,3-thiazolidine-2,4-dione in dilute hydrochloric acid", "setting": "[1]; monohydrate", "value": 0.579, "unit": "mg/g"}, {"measurement": "Concentration in dilute hydrochloric acid compared with the other crystalline forms", "setting": "[1]; listed as free-form crystalline form, monohydrate", "value": "higher concentration than all the dihydrochloride monohydrate crystalline forms"}]}, {"compound": "Cc1cc(Oc2ccc3nc(COc4ccc(CC5SC(=O)NC5=O)cc4)n(C)c3c2)cc(C)c1N", "note": "(stereo not shown) [Compound (I), 5-(4-{[6-(4-amino-3,5-dimethylphenoxy)-1-methyl-1-H-benzimidazol-2-yl]methoxy}benzyl)-1,3-thiazolidine-2,4-dione]", "values": [{"measurement": "Activity to ameliorate insulin resistance and to reduce blood sugar", "setting": "[2]", "value": "significant activity to ameliorate insulin resistance and to reduce blood sugar"}, {"measurement": "Ability to activate PPAR γ", "setting": "[3]", "value": "significant ability to activate"}]}, {"compound": "Cc1cc(Oc2ccc3nc(COc4ccc(CC5SC(=O)NC5=O)cc4)n(C)c3c2)cc(C)c1N", "note": "(stereo not shown) [Crystalline form A manufactured according to Example 4] [5-(4-{[6-(4-amino-3,5-dimethylphenoxy)-1-methyl-1-H-benzimidazol-2-yl]methoxy}benzyl)-1,3-thiazolidine-2,4-dione dihydrochloride monohydrate]", "values": [{"measurement": "The concentration (mg/g) of 5-(4-{[6-(4-amino-3,5-dimethylphenoxy)-1-methyl-1-H-benzimidazol-2-yl]methoxy}benzyl)-1,3-thiazolidine-2,4-dione in dilute hydrochloric acid", "setting": "[1]; dihydrochloride monohydrate", "value": 0.325, "unit": "mg/g"}, {"measurement": "Concentration in dilute hydrochloric acid compared with the other crystalline forms", "setting": "[1]; dihydrochloride monohydrate", "value": "highest concentration among the dihydrochloride monohydrate crystalline forms"}]}, {"compound": "Cc1cc(Oc2ccc3nc(COc4ccc(CC5SC(=O)NC5=O)cc4)n(C)c3c2)cc(C)c1N", "note": "(stereo not shown) [Crystalline form manufactured according to Example (2-1)] [5-(4-{[6-(4-amino-3,5-dimethylphenoxy)-1-methyl-1-H-benzimidazol-2-yl]methoxy}benzyl)-1,3-thiazolidine-2,4-dione dihydrochloride monohydrate]", "values": [{"measurement": "The concentration (mg/g) of 5-(4-{[6-(4-amino-3,5-dimethylphenoxy)-1-methyl-1-H-benzimidazol-2-yl]methoxy}benzyl)-1,3-thiazolidine-2,4-dione in dilute hydrochloric acid", "setting": "[1]; dihydrochloride monohydrate", "value": 0.276, "unit": "mg/g"}]}, {"compound": "Cc1cc(Oc2ccc3nc(COc4ccc(CC5SC(=O)NC5=O)cc4)n(C)c3c2)cc(C)c1N", "note": "(stereo not shown) [dihydrochloride of Compound (I), 5-(4-{[6-(4-amino-3,5-dimethylphenoxy)-1-methyl-1-H-benzimidazol-2-yl]methoxy}benzyl)-1,3-thiazolidine-2,4-dione dihydrochloride]", "values": [{"measurement": "Activity to inhibit the growth of cancer cells in combination", "setting": "[4]", "value": "synergistic activity to inhibit the growth of cancer cells"}, {"measurement": "Activity to inhibit the growth of cancer cells", "setting": "[5]", "value": "significant activity to inhibit the growth"}, {"measurement": "Antitumor activity", "setting": "[6]; alone", "value": "has antitumor activity"}, {"measurement": "Antitumor activity in combination", "setting": "[6]; in combination with an EGFR inhibitor", "value": "enhanced antitumor activity"}, {"measurement": "Growth inhibition of human leukemia cells", "setting": "[7]", "value": "significantly inhibits the growth-inhibiting activity"}, {"measurement": "Antitumor activity", "setting": "[8]; alone", "value": "has antitumor activity"}, {"measurement": "Antitumor activity in combination", "setting": "[8]; in combination with a VEGFR inhibitor or a Raf kinase inhibitor", "value": "enhanced antitumor activity"}, {"measurement": "Activity to inhibit the growth of cancer cells in combination", "setting": "[9]", "value": "synergistic activity to inhibit the growth of cancer cells"}, {"measurement": "Antitumor activity in vivo", "setting": "[10]", "value": "significant antitumor activity in vivo"}]}]}
